Among the data in patent US20170107407A1, “ADHESIVE COMPOSITION AND POLARIZING PLATE COMPRISING SAME” (DONGWOO FINE-CHEM CO., LTD., priority 2014, published 2017) are Solubility values, retold here.

Molecules are shown by their SMILES.

This data set in a line: Evaluation of solubility in methyl ethyl ketone. The settings on record: 1 g compound in 100 g methyl ethyl ketone, shaken 1 hour, left 24 hours at room temperature, visual.

Method: Each compound (1 g) listed in Table 1 and methyl ethyl ketone (MEK, 100 g) were added to a 250 ml bottle and covered with a cap to inhibit the volatilization of the solvent.

For the compound `CCOCCOCCOCC(=O)[O-].[Li+]` [Formula A], the Solubility entry was “∘”.
Take `CCOCCOCCOCC(=O)[O-].[Na+]` [Formula B]: the Solubility result was “∘”.
In the case of `CCCCOCCOCC(=O)[O-].[Na+]` [Formula C], the Solubility result is reported as “∘”.
